Measurements published in the SangsterLogP compilation.

Key:
[1] = not given; remark: listed apart in the source
[2] = method code SF-AS, from DOI: 10.1021/jm991080o, PMID: 10579844; conditions: pH 7.4
[3] = method code SF-ESR, from DOI: 10.1515/znc-1987-7-832, PMID: 2961152
[4] = method code SF-AS, from DOI: 10.1021/jf60167a006
[5] = method code SF, from DOI: 10.1016/s0969-8051(99)00063-3, PMID: 10628565; conditions: pH 7.4
[6] = method code SF-RC, from DOI: 10.1016/j.nucmedbio.2008.01.001, PMID: 18355684; conditions: pH 7.4
[7] = not given; remark: listed apart in the source
[8] = not given; remark: listed apart in the source
[9] = not given; remark: listed apart in the source
[10] = not given; remark: listed apart in the source
[11] = method code SF-AS, from DOI: 10.1021/acs.jmedchem.5b01455, PMID: 26523333; conditions: pH 7.4
[12] = method code SF-GLC, from DOI: 10.1007/s002679900238, PMID: 10486045
[13] = method code SF-AS, from Jha, T.; Debnath, A.; Mazumdar, A.; Sengupta, C.; De, A. (1986). Hansch analysis of antineoplastic agents, 5-N-substituted-2-p-substituted benzenesulfonyl-L-glutamines. Ind. J. Chem., Sect. B, …
[14] = not given; remark: listed apart in the source
[15] = method code SF, from DOI: 10.1016/s0960-894x(01)80459-5
[16] = method code SF-AS, from DOI: 10.1016/0378-5173(84)90231-x
[17] = from Sparatore, F.; Grieco, C.; Silipo, C.; Vittoria, A. (1979). Use of regression analysis to correlate auxin activity with chemical physical and structural properties of benzotriazole derivatives. III. …; conditions: pH 5.6
[18] = method code SF-GLC, from DOI: 10.1007/bf00224496
[19] = not given; remark: listed apart in the source
[20] = not given; remark: listed apart in the source
[21] = method code SF, from DOI: 10.1071/sr9810061
[22] = method code SF-AS, from DOI: 10.1016/j.ejps.2010.09.003, PMID: 20854904; conditions: pH 10.0
[23] = not given; remark: listed apart in the source
[24] = method code SF, from DOI: 10.1016/j.nucmedbio.2004.02.004, PMID: 15219281
[25] = method code SF-AS, from DOI: 10.1515/znc-1987-7-832, PMID: 2961152
[26] = not given; remark: listed apart in the source
[27] = method code SF-AS, from DOI: 10.1039/ft9959100995
[28] = method code SF-AS, from DOI: 10.1021/bi00405a042
[29] = method code SF-AS, from DOI: 10.1016/s0021-9673(00)82600-x
[30] = not given; remark: listed apart in the source
[31] = not given; remark: listed apart in the source
[32] = method code SF-HPLC, from DOI: 10.1248/cpb.37.2861, PMID: 2611948; conditions: pH 4.0
[33] = pH 7.4
[34] = method code SF-AS, from DOI: 10.1016/j.bmc.2011.10.017, PMID: 22094277; conditions: pH 7.4
[35] = not given; remark: listed apart in the source
[36] = not given; remark: listed apart in the source
[37] = method code SF-AS, from DOI: 10.1002/jps.2600630206, PMID: 4204981

For `CC[C@@H](CO)NCCN[C@@H](CC)CO`, the logP was -0.4.

`Cc1[nH]cnc1CSCCNc1cc(=O)cc[nH]1` showed a logP [1] of 0.8.

Work on `CCC(O)c1c(O)c(=O)cc(C)n1C` (stereo not given) yielded a logD [2] of -0.13.

`CC1(C)CC(NC(=O)N(CCCl)N=O)CC(C)(C)N1[O]` showed a logP [3] of 1.6.

`CCOP(=O)(OCC)Oc1c(Cl)cc(SC)cc1Cl` gave a logP [4] of 3.72.

In the case of `OC[C@@H]1[C@@H](O)[C@H](O)[C@@H](O)CN1C/C=C/I`, the logD [5] is reported as -0.37.

In the case of `CN1CCC=C(c2nsnc2SCCC(F)(F)F)C1`, the logD [6] is reported as 2.9.

In the case of `O=C(CCCCCO[N+](=O)[O-])Oc1ccccc1C(=O)O`, the logP [7] is reported as 2.49.

`CCOP(=O)(OCC)Oc1ccccc1` gave a logP [4] of 1.64.

Compound `CC(C)=CCCC(C)CCO` (stereo not given) has a logP [8] of 3.38.

With `Clc1cc2c(Cl)ccc(Cl)c2c(Cl)c1Cl` the logP [9] was 6.46.

Compound `CNC(=O)Oc1cc(C)c(N(C)C)c(C)c1` has a logP [10] of 2.56.

`FCC(F)Cc1c[nH]c2ccccc12` (stereo not given) gave a logD [11] of 2.54.

Work on `Cc1[nH]cnc1CSCCNC1=NC(=O)CN1` yielded a logP [1] of -0.5.

For `CN1CCC=C(c2nsnc2SCCCF)C1`, the logD [6] was 2.4.

In the case of `CC1=CCC(C(C)C)=CC1`, the logP [12] is reported as 4.5.

Work on `CCCCNC(=O)CCC(NS(=O)(=O)c1ccc(C)cc1)C(=O)O` (stereo not given) yielded a logP [13] of 0.02.

Work on `N#Cc1ccc(/C=C2\CCCc3ccccc3C2=O)cc1` yielded a logP [14] of 4.27.

With `Nc1ncnc2c1ncn2[C@@H]1O[C@H](CO)C[C@H]1O` the logP [15] was -0.65.

`CC(C)(C)[N+]([O-])=Cc1ccccc1` showed a logP [16] of 1.22.

`OCCCCCn1nnc2ccccc21` showed a logD [17] of 1.51.

For `CC1(C)C2CCC1(C)C(OCCO)C2` (stereo not given), the logP [12] was 3.32.

For `C=CC(=C)CCC=C(C)C`, the logP [18] was 4.5.

Compound `Clc1cccc2cccc(Cl)c12` has a logP [19] of 4.41.

Compound `CCNc1nc(Cl)nc(NC(C)(C)C)n1` has a logP [20] of 3.06.

`CCOP(=O)(OCC)SCS(=O)C(C)(C)C` (stereo not given) gave a logP [21] of 2.66.

With `CN(C)CCOC(=O)c1ccccc1` the logD [22] was 1.76.

In the case of `CC(C)=CCC/C(C)=C/C=O`, the logP [8] is reported as 3.76.

`CC(F)(F)Cc1c[nH]c2ccccc12` showed a logD [11] of 3.3.

`CC(C)N1CCOC(c2cccc(Cl)c2)C1` (stereo not given) showed a logP [23] of 3.27.

In the case of `O=c1[nH]c(=O)n(C2CC(O)C(CO)O2)cc1/C=C/I` (stereo not given), the logP [24] is reported as 1.1.

Compound `CC1CCC(NC(=O)N(CCCl)N=O)CC1` (stereo not given) has a logP [25] of 3.25.

For `CC(=O)c1ccc2cccccc1-2`, the logP [26] was 2.87.

With `O=C(CCN1CCOCC1)c1ccccc1` the logD [22] was 1.24.

For `CC(=O)Nc1ncc2ncn(COCCOC(C)=O)c2n1`, the logP [27] was -1.05.

Compound `CNC(=O)CCc1c[nH]c2ccccc12` has a logP [28] of 1.23.

Compound `O=c1[nH]c(=O)n([C@@H]2O[C@H](CO)[C@@H](O)[C@H]2F)cc1/C=C/I` has a logP [24] of 1.21.

Compound `OCCCCCCn1nc2ccccc2n1` has a logD [17] of 2.26.

Work on `Cc1nccn1CC1CCc2c(c3ccccc3n2C)C1=O` (stereo not given) yielded a logP of 1.92.

`CC(C)(C)[N+]([O-])=Cc1ccc(F)cc1` gave a logP [16] of 1.42.

With `COc1cnn(-c2ccccc2)c(=O)c1Br` the logP [29] was 1.42.

In the case of `C=C(C)C1CC=C(C)CC1` (stereo not given), the logP [18] is reported as 4.4.

For `CCC1(CC)C(=O)NC(=O)N=C1OC(C)C`, the logP [30] was 1.86.

`CC(=O)OCC1C(OC(C)=O)C(OC(C)=O)C(OC(C)=O)CN1Cc1cccc(I)c1` (stereo not given) gave a logD [5] of 3.16.

In the case of `CCC(O)(C(N)=O)c1ccccc1` (stereo not given), the logP [31] is reported as 1.2.

`O=c1[nH]c(=O)n(Cc2ccc(Cl)cc2)cc1F` showed a logD [32] of 1.64.

With `CC(=O)Oc1ccccc1C(=O)OCS(C)=O` (stereo not given) the logD [33] was 0.11.

Compound `CCOC(=O)[C@@]1(C)[C@H](CO)CC=[N+]1[O-]` has a logD [34] of -1.3.

Work on `CCNc1nc(Cl)nc(N(CC)CC)n1` yielded a logP [20] of 3.07.

Compound `OC[C@@H]1C[C@@H](F)[C@H](n2cnc3c(Cl)ncnc32)O1` has a logP [35] of 0.32.

Work on `CC1(C)CC(NC(=O)N(CCCl)N=O)C(C)(C)[N+]1(C)[O-]` (stereo not given) yielded a logP [3] of 1.64.

With `CCCC(C)(COC(N)=O)COC(N)=O` the logP [14] was 1.12.

Compound `CC(=O)Oc1ccccc1C(=O)OCCN(C)C(C)=O` has a logD [33] of 1.46.

Compound `CC(=O)OCCOCn1cnc2cnc(N)nc21` has a logP [27] of -0.61.

With `CNC(=O)CCc1ccccc1` the logP [28] was 1.17.

In the case of `Cc1cccc(C2CNCCO2)c1` (stereo not given), the logP [23] is reported as 1.52.

In the case of `CCC(O)(CC(N)=O)c1ccccc1` (stereo not given), the logP [31] is reported as 1.83.

`O=C[C@H](NC(=O)N(CCCl)N=O)[C@@H](O)[C@H](O)[C@H](O)CO` gave a logP [36] of -1.02.

With `CC(C)OC(=O)[C@@]1(C)[C@H](CO)CC=[N+]1[O-]` the logD [34] was -0.96.

Work on `CCc1c(O)c(=O)ccn1CCOC(C)=O` yielded a logD [2] of -0.24.

Work on `O=C(CCCO[N+](=O)[O-])Oc1ccccc1C(=O)O` yielded a logP [7] of 1.95.

For `Clc1cc2c(Cl)c(Cl)c(Cl)c(Cl)c2cc1Cl`, the logP [9] was 6.77.

Work on `Clc1cc2ccccc2cc1Cl` yielded a logP [19] of 4.71.

In the case of `O=Cc1ccc2cccccc1-2`, the logP [26] is reported as 2.64.

`O=c1[nH]c(=O)n(Cc2ccccc2)cc1F` showed a logD [32] of 0.89.

For `CCC1(c2ccccc2)C(=O)NC(=O)N(C(C)C)C1=O` (stereo not given), the logP [30] was 2.58.

For `CCOP(=S)(OCC)SCSc1ccc(Cl)cc1`, the logP [10] was 4.53.

`CCCCCCCCCCCCCCCCOP(=O)(OCC1CC(O)C(n2cnc3c(N)ncnc32)O1)OCC1OC(n2cc(C)c(=O)[nH]c2=O)CC1N=[N+]=[N-]` (stereo not given) showed a logP [15] of 3.26.

For `CN(C(=O)N(CCCl)N=O)C1CC(C)(C)N(O)C(C)(C)C1`, the logP [25] was 1.7.

Compound `NC(=O)CCC(NS(=O)(=O)c1ccccc1)C(=O)O` (stereo not given) has a logP [13] of 0.58.

Compound `COc1ncnc2c1ncn2[C@@H]1O[C@H](CO)C[C@H]1F` has a logP [35] of 0.25.

`CCC(C)(Oc1ccc(Cl)cc1)C(=O)O` (stereo not given) gave a logP [37] of 2.9.

With `CN(C)c1cnn(-c2ccccc2)c(=O)c1Cl` the logP [29] was 1.55.

Work on `O=C(O)C1CCc2ccccc2O1` (stereo not given) yielded a logP [37] of 1.9.

`CCOP(=O)(OCC)SCS(=O)(=O)C(C)(C)C` showed a logP [21] of 2.76.
